Experimental data as given in BindingDB's records for doi:10.1021/jm00150a013 (1986).

Molecular target: Chymotrypsinogen A (Bos taurus) (UniProt P00766)
Assay: Inhibitory activity against bovine Chymotrypsinogen expressed as inhibitory constant

Ki: 1.35 mM
SMILES: CCCCc1c(C)oc(=O)c(CCCC)c1O
